Measurements: US20020155172A1, “Methods and compounds for decreasing cell toxicity or death” (priority 2000, published 2002)

How the values were obtained:
[1] = system: FADDdn, caspase-8dn, and HD exon-1 (Q25)-GFP; test: Recruitment of polyglutamine interacting proteins; assay type: cell-based; settings: HeLa co-transfected with Q-79
From the text: FIG. 7A is a graph of the effect of Congo red or ZVAD on the recruitment of caspase-8, a death domain, or proteins containing short polyglutamine repeats by expanded polyglutamine oligomerization in cells transfected with a Q79-GFP expression construct and a caspase-8 (GFP-casp 8DN), death domain (GFP-FADD DN), or short polyglutamine (HD-1 (Q25)-GFP) protein recruitment.
We co-transfected HeLa cells with Q-79 and one of the following expression constructs, GFP-FADDdn (GFP fused to the death domain of FADD adapter protein, that generates a dominant negative FADD polypeptide (missing the first 80 amino acids of the full length protein)), GFP-caspase-8dn (GFP-tagged C360S mutant of caspase-8, generating a dominant negative caspase-8 polypeptide; Sanchez et al., supra), or GFP-exon-1 (Q25) (a GFP fusion construct containing the first exon of human huntingtin protein, encoding a 25 polyglutamine stretch; Kazantsev et al., Proc. Natl. Acad. Sci. USA 96:[…], 1999), in the presence of ZVAD or of Congo red (FIGS. 7A and B).

RIP, FADD, and Daxx = test: Apoptosis induced by overexpression of adapter proteins; assay type: cell-based
Experimental: FIG. 5G is a graph of the effects of Congo red on cell death induced by adapter protein oligomerization (Daxx, RIP, FADD).
HeLa cells expressing Q79 expanded polyglutamine repeats were treated with 100 μM Congo red, or 100 μM ZVAD (a positive control) for one hour prior to the addition of the apoptosis-inducing agent, and cell death was determined 48 hours later. […] Finally we tested whether Congo red can inhibit apoptosis induced by overexpression of caspase-1, -8, or -11.

[2] = system: wild type mice and R62 mice; test: Tolerability of Congo red in mice; assay type: in vivo
Experimental: The latter procedure involved administration of 0.25 μl of the drug (1 mg/ml in 0.4% DMSO) per hour, for a period of at least 28 days. The treatment began at the latter part of the seventh week. When treatment began, although very little motor symptomology was observed, tremors were becoming apparent. Polyglutamine inclusions were readily detected at the beginning of treatment. The effect of Congo red on the polyglutamine-induced toxicity in muscle strength in the animal model R62 was quantified by the use of a rotorod.
(§1) In addition, the ability of Congo red to inhibit the formation as well as to disrupt preformed polyglutamine oligomers allowed us to examine the role of polyglutamine aggregates in neuronal dysfunction and degeneration characteristic of polyglutamine expansion diseases. In these studies, we used the animal model of Huntington's disease (R62), which expresses the truncated form of huntingtin with 139 CAG repeats Mangiarini et al. (supra). We took advantage of our finding that in addition to inhibiting polyglutamine oligomerization, Congo red also disrupts pre-formed oligomers, thus allowing assessment of the impact of Congo red on disease progression after formation of polyglutamine aggregates and the onset of symptoms. R62 transgenic mice and CBAxC57B1/6 F1 wild type littermates were obtained from Jackson Laboratories (Bar Harbor, Me.) at the age of five weeks. […]

[3] = system: R62 mice and wild-type mice; test: Body weight; assay type: in vivo
From the text: FIG. 10A is a graph showing the effect of Congo red or PBS (vehicle) on body weight in HD transgenic mice between 9 and 11 weeks of age (top graph) and between 9 and 13 weeks of age (bottom graph). Mice were infused intraperitoneally (IP) or by intracerebroventricular cannula (ICV) implanted into the predetermined coordinates on the left ventricle, or by both routes.
as §1, with “symptoms.” for “symptoms. R62 transgenic mice and CBAxC57B1/6 F1 wild type littermates were obtained from Jackson Laboratories (Bar Harbor, Me.) at the age of five weeks.”
One of the common features of Huntington's disease is severe weight loss, proposed to be due to metabolic defects as a part of the systemic pathology of the expanded polyglutamine repeat diseases. We monitored the body weight of mice before and after treatment (FIG. 10A).

[4] = system: GST-Q19, GST-Q62, and GST-Q81; test: Chemical absorption assay, polyglutamine repeat length; assay type: binding; settings: 10 μg/ml Congo red in PBS; equal protein concentrations
Experimental: FIG. 6A is a graph of the percent of binding of Congo red to expanded polyglutamine repeats Q81, Q62, and Q19.
To determine if Congo red and its derivatives directly bind to expanded polyglutamine aggregates, we designed a chemical absorption assay. This assay measures the remaining Congo red in the supernatant after incubating the supernatant with GST-tagged polyglutamine beads, and removing the GST-polyglutamine beads by centrifugation. This assay was carried out as follows. Recombinant protein GST-Q19, GST-Q62, and GST-Q81 (containing 19, 62, and 81 polyglutamines, respectively) was purified from E. coli by glutathione beads. After several washes with PBS containing protease inhibitors, the beads were allowed to settle to the bottom of the tube at 24° C. for 10 minutes. The polyglutamine-bound beads were aliquoted and diluted with two volumes of 10 μg/ml of Congo red in PBS. The beads were mixed and centrifuged at 15,000 rpm for 2 minutes and the supernatant was removed and diluted 1:100. The percentage absorbance of the compound remaining in the supernatant after absorption with the GST-polyQ beads was then detected. In addition, Congo red- or PBS-only treated polyglutamine polypeptide bead pellets were washed three times with 100 volumes of PBS and then the protein was separated by 12% polyacrylamide gels and immunoblotted as mentioned above. […]

Question: What does the source list for `Nc1c(/N=N/c2ccc(-c3ccc(/N=N/c4cc(S(=O)(=O)O)c5ccccc5c4N)cc3)cc2)cc(S(=O)(=O)O)c2ccccc12` [Congo red, diphenyldiazo-bis-alpha-napthylaminesulfonate]?
Answer: recruitment of FADDdn, caspase-8dn, and HD exon-1 (Q25)-GFP [1]: decreased the concurrent recruitment of FADDdn, caspase-8dn, and HD exon-1 (Q25)-GFP; apoptosis induced by overexpression of RIP, FADD, or Daxx (RIP, FADD, and Daxx): had no effect on apoptosis induced by overexpression of RIP, FADD, or Daxx; gross morphological abnormalities or symptoms ([2]; IP or ICV infusion, normal wild type mice or pre- or post-symptomatic R62 mice): no gross morphological abnormalities or induction of any obvious symptoms; drug toxicity ([2]; intraperitoneal injection up to 13 mg/kg every 48 hours for two weeks): no obvious drug toxicity; body weight, wild-type mice ([3]; 9 to 13 weeks, versus vehicle treated wild-type mice): no change in body weight; loss of body weight, expanded polyglutamine repeat expressing mice ([3]; ICV or IP route of delivery): significantly ameliorated; affinity for polyglutamine repeats Q81 or Q62 compared to Q19 [4]: significantly higher affinity for expanded polyglutamine repeats that were 81 or 62 polyglutamines in length
